Measured values from patent publication US20230010299A1, “HETEROCYCLIC TRPML1 AGONISTS” (LIBRA THERAPEUTICS, INC., priority 2019, published 2023).

Legend:
[1] = target: T1, TRPML1 (Homo sapiens, UniProt Q9GZU1); assay: TRPML1 automated patch-clamp (QPatch 16X); format: cell-based; settings: HEK T-REx/GcaMP6f/TRPML1 cells, current with compound/current in vehicle, extracellular pH 4.6
T1 construct: expressed in transfected cells
Procedure: TRPML1—Automated Patch-Clamp
HEK T-REx/GcaMP6f/TRPML1 cells were cultured in DMEM High Glucose (Lonza BioWhittaker cat. BE12-604F/U1; 500 mL) supplemented with Fetal Bovine Serum TET-FREE (Euroclone cat. EC S0182L; 50 mL, Penicillin-Streptomycin (BioWhittaker, cat. DE17-602E; 5 mL of 100× Solution), G418 (Sigma, cat. G8168; 0.25 mg/ml) and Zeocyn (InvivoGen, cat. ant-zn-1; 50 μg/ml).
HEK T-REx/GcaMP6f/TRPML1 cells were seeded 48 or 72 hours before experiment, at a concentration of 8*10^6/4*10^6 cells onto a T225 flask. Just before the experiments, cells were washed twice with D-PBS w/o Ca^2+/Mg^2+ (Euroclone cat. ECB4004L) and detached from the flask with trypsin-EDTA (Sigma cat. T4174; diluted 1/10). Cells were then re-suspended in the suspension solution: 25 mL EX-CELL ACF CHO medium(Sigma cat. C5467); 0.625 mL HEPES (Sigma cat. H0887); 0.25 mL of 100× Penicillin/Streptomycin (Euroclone cat. ECB3001D), 0.1 mL of Soybean Trypsin Inhibitor 10 mg/mL (Sigma cat. T6522) and placed on the QPatch 16X.
Dilution from stock were prepared just before the experiments in the extracellular solution (0.25% final DMSO concentration). DMSO solution was obtained from AppliChem (cat. A3672)
Patch Clamp Solutions: • Intracellular solution (mM): 120 CsMeSO3, 4 NaCl, 2 MgCl2, 10 EGTA, 20 HEPES, 2 Mg-ATP (pH 7.2 with CsOH). • Extracellular solution (mM): 140 NaGluconate, 5 KCl, 1 MgCl2, 2 CaCl2), 10 Glucose, 10 MES (pH 4.6 with HCl).
Patch Clamp Analysis—QPatch 16X
For the voltage clamp experiments on TRPML1, data were sampled at 5 KHz. After establishment of the seal and the passage in the whole cell configuration, the cells were held at −20 mV and the TRPML1 current was evoked using the voltage protocol illustrated in FIG. 2, applied every 5 sec. (50 ms at −20 mV; 20 ms at −120 mV, 1000 ms ramp from −120 to […]; 20 ms at +40 mV, and back to −20 mV); in the absence (vehicle period, i.e. 0.25% DMSO) and in the presence of increasing concentrations (3) of the compound under investigation.
Agonists: For data collection, the Sophion proprietary software was used and the analysis was performed off-line using Excel and GraphPad Prism (V 8.00). Results are reported in Table 6, expressed as TRPML1 current fold increase evoked by the compound under investigation (i.e. current in the presence of the compound/current in vehicle).

[2] = target: T1, TRPML1; assay: TRPML1 manual patch clamp on isolated enlarged endolysosomes; format: cell-based; settings: whole-endolysosome recording, HEK T-REx/GcaMP6f/TRPML1 cells, luminal pH 4.6
Procedure: TRPML1 —Manual Patch Clamp
Endolysosomal electrophysiology was performed in isolated enlarged endolysosomes using a modified patch-clamp method (Dong et al., 2010). HEK T-REx/GcaMP6f/TRPML1 cells were treated with […] PIKfive inhibitor overnight. Whole-endolysosome recordings were performed on manually isolated enlarged endolysosomes (Dong et al., 2010). In brief, a patch pipette was pressed against a cell and quickly pulled away to slice the cell membrane. Enlarged endolysosomes were released into a dish and a gigaseal between the patch pipette and the enlarged endolysosome was obtained. Negative pressure or voltage steps of several hundred millivolts with millisecond duration were then applied to break into the vacuolar membrane.
Bath (internal/cytoplasmic) solution contained 140 mM K-gluconate, 4 mM NaCl, 1 mM EGTA, 2 mM MgCl2, 0.39 mM CaCl2), 20 mM HEPES (pH was adjusted with KOH to 7.2). The pipette (luminal) solution was standard extracellular solution (modified Tyrode's: 145 mM NaCl, 5 mM KCl, 2 mM CaCl2), 1 mM MgCl2, 10 mM HEPES, 10 mM MES, 10 mM glucose; the pH was adjusted with NaOH to pH 4.6).
Dilution from stock were prepared just before the experiments in the extracellular solution (0.1% final DMSO concentration). DMSO solution was obtained from AppliChem (cat. A3672).
All bath solutions were applied via a perfusion system that allowed us to achieve complete solution exchange within a few seconds.
Data were collected using an HEKA EPC 10 patch-clamp amplifier, and PatchMaster v2x73.5 software (HEKA Elektronik). Whole-endolysosome currents were digitized at 20 kHz. All experiments were conducted at room temperature, and all recordings were analyzed with pClamp 10.7 (Molecular Devices) and GraphPad Prism (V8.00).
TRPML1 current was evoked using the voltage protocol illustrated in FIG. 3, applied every 5 sec. (10 ms at −80 mV; 500 ms ramp from −120 to +40 mV; 10 ms at −80 mV); in the absence (vehicle period, i.e. 0.1% DMSO) and in the presence of the compound (agonist) under investigation.

T1 sequence (Q9GZU1 whole entry): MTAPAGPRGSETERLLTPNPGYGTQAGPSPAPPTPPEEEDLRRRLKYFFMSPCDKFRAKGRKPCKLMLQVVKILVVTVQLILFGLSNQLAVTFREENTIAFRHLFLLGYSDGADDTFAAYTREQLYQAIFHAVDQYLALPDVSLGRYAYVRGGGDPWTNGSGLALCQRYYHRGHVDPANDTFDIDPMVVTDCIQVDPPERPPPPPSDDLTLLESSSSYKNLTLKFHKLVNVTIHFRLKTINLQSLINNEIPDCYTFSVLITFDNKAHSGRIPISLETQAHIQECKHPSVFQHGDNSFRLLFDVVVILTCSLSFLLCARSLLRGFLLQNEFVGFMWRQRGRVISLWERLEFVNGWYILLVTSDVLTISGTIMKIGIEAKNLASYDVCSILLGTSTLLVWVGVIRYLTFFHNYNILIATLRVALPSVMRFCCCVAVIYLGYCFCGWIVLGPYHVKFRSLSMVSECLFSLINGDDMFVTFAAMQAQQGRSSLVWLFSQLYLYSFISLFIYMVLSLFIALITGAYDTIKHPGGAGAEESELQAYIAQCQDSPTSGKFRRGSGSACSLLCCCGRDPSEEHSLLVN

CN(C)S(=O)(=O)c1ccc(S(=O)(=O)NC2CCCCC2N2CCC(Oc3ccccc3)CC2)cc1 (racemic) [Example 57, N1,N1-dimethyl-N4-[2-(4-phenoxypiperidin-1-yl)cyclohexyl]benzene-1,4-disulfonamide]
Qpatch Assay TRPML1 agonism Current fold increase Mean ± SEM (n) ([1]; 0.3 μM compound): 0.39 ± 0.14 (2) | Qpatch Assay TRPML1 agonism Current fold increase Mean ± SEM (n) ([1]; 3.0 μM compound): 0.86 ± 0.68 (2) | Qpatch Assay TRPML1 agonism Current fold increase Mean ± SEM (n) ([1]; 30 μM compound): 4.3 ± 2.2 (2) | Lysosomal Patch-Clamp Current fold increase Mean ± SEM (n) ([2]; 2.0 uM compound): 18.0 ± 8.5 (3)

CN(C)S(=O)(=O)c1ccc(S(=O)(=O)Nc2ccccc2N2CCCCC2)cc1 [Example 6, N1,N1-dimethyl-N4-[2-(piperidin-1-yl)phenyl]benzene-1,4-disulfonamide]
Qpatch Assay TRPML1 agonism Current fold increase Mean ± SEM (n) ([1]; 0.3 μM compound): 1.0 ± 0.77 (3) | Qpatch Assay TRPML1 agonism Current fold increase Mean ± SEM (n) ([1]; 3.0 μM compound): 32.7 ± 8.9 (3) | Lysosomal Patch-Clamp Current fold increase Mean ± SEM (n) ([2]; 2.0 uM compound): 3.3 ± 0.67 (3)

CN(C)S(=O)(=O)c1ccc(S(=O)(=O)Nc2ccccc2N2CCN(C(=O)OC(C)(C)C)CC2)cc1 [Example 13, tert-butyl 4-{2-[4-(dimethylsulfamoyl)benzenesulfonamido]phenyl}piperazine-1-carboxylate]
Qpatch Assay TRPML1 agonism Current fold increase Mean ± SEM (n) ([1]; 0.3 μM compound): 13.5 ± 4.8 (4) | Qpatch Assay TRPML1 agonism Current fold increase Mean ± SEM (n) ([1]; 3.0 μM compound): 208 ± 15.7 (4) | Qpatch Assay TRPML1 agonism Current fold increase Mean ± SEM (n) ([1]; 30 μM compound): 244 ± 27.6 (4) | Lysosomal Patch-Clamp Current fold increase Mean ± SEM (n) ([2]; 30.0 uM compound): 27.5 ± 10.8 (2)

CN(C)S(=O)(=O)c1ccc(S(=O)(=O)Nc2ccccc2N2CCC(Oc3ccccn3)CC2)cc1 [Example 75, N1,N1-dimethyl-N4-{2-[4-(pyridin-2-yloxy)piperidin-1-yl]phenyl}benzene-1,4-disulfonamide]
Qpatch Assay TRPML1 agonism Current fold increase Mean ± SEM (n) ([1]; 0.3 μM compound): 310 ± 147 (4) | Qpatch Assay TRPML1 agonism Current fold increase Mean ± SEM (n) ([1]; 3.0 μM compound): 435 ± 172 (4) | Qpatch Assay TRPML1 agonism Current fold increase Mean ± SEM (n) ([1]; 30 μM compound): 603 ± 155 (3)

CN(C)S(=O)(=O)c1ccc(S(=O)(=O)Nc2ccccc2N2CCC(C(=O)OC(C)(C)C)CC2)cc1 [Example 76, f-butyl 1-{2-[4-(dimethylsulfamoyl)benzenesulfonamido]phenyl}piperidine-4-carboxylate]
Qpatch Assay TRPML1 agonism Current fold increase Mean ± SEM (n) ([1]; 0.3 μM compound): 35.6 ± 26.7 (3) | Qpatch Assay TRPML1 agonism Current fold increase Mean ± SEM (n) ([1]; 3.0 μM compound): 38.5 ± 24.8 (2) | Qpatch Assay TRPML1 agonism Current fold increase Mean ± SEM (n) ([1]; 30 μM compound): 52.7 ± 36.3 (2)

CN(C)S(=O)(=O)c1ccc(S(=O)(=O)Nc2ccccc2N2CCC(Oc3cnccn3)CC2)cc1 [Example 77, N1,N1-dimethyl-N4-{2-[4-(pyrazin-2-yloxy)piperidin-1-yl]phenyl} benzene-1,4-disulfonamide]
Qpatch Assay TRPML1 agonism Current fold increase Mean ± SEM (n) ([1]; 0.3 μM compound): 74.4 ± 13.8 (3) | Qpatch Assay TRPML1 agonism Current fold increase Mean ± SEM (n) ([1]; 3.0 μM compound): 167 ± 10.7 (3) | Qpatch Assay TRPML1 agonism Current fold increase Mean ± SEM (n) ([1]; 30 μM compound): 168 ± 9.8 (3)
